Laboratory results from patent publication US12195730B2, “High-throughput screening methods to identify small molecule targets” (A-Alpha Bio, Inc., priority 2020, dated 2025).

Assays:
[1] = target: interaction between FKBP12 and the FRB domain of TOR (Homo sapiens, UniProt P42345+P62942); experiment: AlphaSeq yeast mating assay, effect of small molecule agonists on FKBP12/FRB interaction; conditions: FIG. 6B; increasing compound concentration correlates with increasing mating efficiency
[2] = target: T1, interaction of IKZF1 with wild-type CRBN (Homo sapiens, UniProt Q96SW2); experiment: AlphaSeq assay, effect of thalidomide and analogs on wild-type CRBN/IKZF1 interaction; type: cell-based; conditions: FIG. 7B
T1 construct: expressed in transfected cells; host or cells: recombinant haploid yeast cells (surface display)
Source text: (§1) FIG. 7A is a schematic illustrating thalidomide, or its analogs, mediating the interaction between CRBN and IKZF1.

[3] = tested on: interaction of IKZF1 with mutant CRBN; experiment: AlphaSeq assay, effect of thalidomide and analogs on mutant CRBN/IKZF1 interaction; type: cell-based; conditions: FIG. 7B
Source text: as §1

T1 sequence (Q96SW2 whole entry): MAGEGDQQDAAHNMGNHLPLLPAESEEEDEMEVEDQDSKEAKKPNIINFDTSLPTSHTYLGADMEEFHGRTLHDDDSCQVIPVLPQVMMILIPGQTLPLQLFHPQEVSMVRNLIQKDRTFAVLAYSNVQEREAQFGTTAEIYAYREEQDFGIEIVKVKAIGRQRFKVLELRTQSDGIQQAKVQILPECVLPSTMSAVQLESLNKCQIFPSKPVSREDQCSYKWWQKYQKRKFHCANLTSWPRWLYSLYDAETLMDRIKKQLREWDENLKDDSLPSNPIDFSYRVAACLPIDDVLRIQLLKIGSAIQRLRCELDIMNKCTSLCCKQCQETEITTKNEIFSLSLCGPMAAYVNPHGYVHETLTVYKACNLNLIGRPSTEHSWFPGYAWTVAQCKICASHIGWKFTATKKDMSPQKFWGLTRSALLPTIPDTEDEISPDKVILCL
T1 sequence (Q13422 whole entry partner): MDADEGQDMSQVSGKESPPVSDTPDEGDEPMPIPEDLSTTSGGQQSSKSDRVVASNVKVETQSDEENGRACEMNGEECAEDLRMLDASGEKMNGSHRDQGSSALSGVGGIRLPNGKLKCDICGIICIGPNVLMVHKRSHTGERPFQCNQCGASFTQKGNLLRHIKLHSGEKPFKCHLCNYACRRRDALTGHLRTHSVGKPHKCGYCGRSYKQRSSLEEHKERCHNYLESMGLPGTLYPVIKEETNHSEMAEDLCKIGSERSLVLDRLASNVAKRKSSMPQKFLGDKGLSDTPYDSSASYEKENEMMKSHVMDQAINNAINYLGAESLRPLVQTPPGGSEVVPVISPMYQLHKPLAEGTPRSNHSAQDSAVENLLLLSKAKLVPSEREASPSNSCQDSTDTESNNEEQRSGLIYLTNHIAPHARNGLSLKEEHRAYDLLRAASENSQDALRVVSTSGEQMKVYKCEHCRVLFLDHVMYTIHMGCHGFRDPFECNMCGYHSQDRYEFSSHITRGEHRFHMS
Chain of interaction between FKBP12 and the FRB domain of TOR (P62942 whole entry, the tested form may be a part): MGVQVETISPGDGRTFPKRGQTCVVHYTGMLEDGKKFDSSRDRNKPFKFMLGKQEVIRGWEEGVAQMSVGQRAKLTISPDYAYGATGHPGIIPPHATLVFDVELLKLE
Chain of interaction between FKBP12 and the FRB domain of TOR (P42345 2012-2144 limits assumed): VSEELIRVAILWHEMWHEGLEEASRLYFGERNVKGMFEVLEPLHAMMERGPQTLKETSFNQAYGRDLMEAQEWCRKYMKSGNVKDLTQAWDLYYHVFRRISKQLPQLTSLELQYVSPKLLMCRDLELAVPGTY

SMILES | effect on the interaction between FKBP12 and the FRB domain (mating efficiency) [1] | effect on the interaction of IKZF1 with wild-type CRBN [2] | effect on the interaction of IKZF1 with mutant CRBN [3]
CO[C@H]1C[C@@H]2CC[C@@H](C)[C@@](O)(O2)C(=O)C(=O)N2CCCC[C@H]2C(=O)O[C@H]([C@H](C)C[C@@H]2CC[C@@H](OCCO)[C@H](OC)C2)CC(=O)[C@H](C)/C=C(\C)[C@@H](O)[C@@H](OC)C(=O)[C@H](C)C[C@H](C)/C=C/C=C/C=C/1C [everolimus] | agonistic effect |  | 
Nc1cccc2c1C(=O)N(C1CCC(=O)NC1=O)C2=O (stereo not drawn) [pomalidomide] |  | agonistic effect | not mutant CRBN
CO[C@H]1C[C@@H]2CC[C@@H](C)[C@@](O)(O2)C(=O)C(=O)N2CCCC[C@H]2C(=O)O[C@H]([C@H](C)C[C@@H]2CC[C@@H](OP(C)(C)=O)[C@H](OC)C2)CC(=O)[C@H](C)/C=C(\C)[C@@H](O)[C@@H](OC)C(=O)[C@H](C)C[C@H](C)/C=C/C=C/C=C/1C [ridaforolimus] | agonistic effect |  | 
O=C1CCC(N2C(=O)c3ccccc3C2=O)C(=O)N1 (stereo not drawn) [thalidomide] |  | agonistic effect | not mutant CRBN
